Test results published in patent US10597388B2, “Pyridazinone herbicides” (FMC CORPORATION, priority 2014, dated 2020).

Columns and labels:
Assay type in all cases: in vivo
[1] = tested on: oat, wild (wild oat, Avena fatua); test: Test C greenhouse herbicide test, postemergence
In short: (§1)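 Postemergence foliar treatment, 1- to 4-leaf stage (2–18 cm), peat/vermiculite medium; greenhouse 13–15 d; visual rating vs controls, 0 = no effect, 100 = complete control; dash = no result.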

[2] = tested on: chickweed (common chickweed, Stellaria media); test: Test C greenhouse herbicide test, postemergence
In short: as §1

kochia (Kochia scoparia) = test: Test C greenhouse herbicide test, postemergence
In short: as §1

[3] = tested on: barnyardgrass (Echinochloa crus-galli); test: Test C greenhouse herbicide test, pre- and postemergence
Source text: (§2) Seeds of plant species selected from blackgrass (Alopecurus myosuroides), ryegrass, Italian (Italian ryegrass, Lolium multiflorum), wheat (winter wheat, Triticum aestivum), galium (catchweed bedstraw, Galium aparine), corn (Zea mays), large crabgrass, large (large crabgrass, Digitaria sanguinalis), foxtail, giant (giant foxtail, Setaria faberii), johnsongrass (Sorghum halepense), lambsquarters (Chenopodium album), morningglory (Ipomoea coccinea), nutsedge, yellow (yellow nutsedge, Cyperus esculentus), pigweed (Amaranthus retroflexus), ragweed (common ragweed, Ambrosia elatior), soybean (Glycine max), barnyardgrass (Echinochloa crus-galli), oilseed rape (Brassica napus), waterhemp (common waterhemp, Amaranthus rudis), and velvetleaf (Abutilon theophrasti) were planted into a blend of loam soil and sand and treated preemergence with test chemicals formulated in a non-phytotoxic solvent mixture which included a surfactant.
(§3) At the same time, plants selected from these crop and weed species and also chickweed (common chickweed, Stellaria media), kochia (Kochia scoparia), and oat, wild (wild oat, Avena fatua), were planted in pots containing Redi-Earth® planting medium (Scotts Company, 14111 Scottslawn Road, Marysville, Ohio 43041) comprising spaghnum peat moss, vermiculite, wetting agent and starter nutrients and treated with postemergence applications of test chemicals formulated in the same manner. Plants ranged in height from 2 to 18 cm (1- to 4-leaf stage) for postemergence treatments. Treated plants and controls were maintained in a greenhouse for 13 to 15 d, after which time all species were compared to controls and visually evaluated. Plant response ratings, summarized in Table C, are based on a scale of 0 to 100 where 0 is no effect and 100 is complete control. A dash (-) response means no test result.

[4] = tested on: velvetleaf (Abutilon theophrasti); test: as above
Source text: as §2, §3

[5] = tested on: ryegrass, Italian (Italian ryegrass, Lolium multiflorum); test: as above
Source text: as §2, §3

[6] = tested on: galium (catchweed bedstraw, Galium aparine); test: as above
Source text: as §2, §3

soybean (Glycine max) = test: as above
Source text: as §2, §3

[7] = tested on: ragweed (common ragweed, Ambrosia elatior); test: as above
Source text: as §2, §3

[8] = tested on: pigweed (Amaranthus retroflexus); test: as above
Source text: as §2, §3

[9] = tested on: nutsedge, yellow (yellow nutsedge, Cyperus esculentus); test: as above; conditions: Preemergence; for Plant response rating, Nutsedge, Yellow: scale 0 to 100, 0 is no effect, 100 is complete control
Source text: as §2, §3

[10] = tested on: blackgrass (Alopecurus myosuroides); test: as above
Source text: as §2, §3

[11] = Postemergence, 31 g ai/ha, 0 to 100 scale (0 no effect, 100 complete control)
[12] = Postemergence, 125 g ai/ha, scale 0 to 100, 0 is no effect, 100 is complete control
[13] = Postemergence, 250 g ai/ha, scale 0 to 100, 0 no effect, 100 complete control, 13 to 15 d
[14] = postemergence, 62 g ai/ha, scale 0 to 100, 0 no effect, 100 complete control
[15] = Preemergence, 31 g ai/ha, scale 0 to 100, 0 is no effect, 100 is complete control
[16] = Preemergence, 62 g ai/ha, scale 0 to 100, 0 is no effect, 100 is complete control
[17] = Preemergence, 125 g ai/ha, scale 0 to 100, 0 is no effect, 100 is complete control
[18] = Preemergence, 250 g ai/ha, scale 0 to 100, 0 no effect, 100 complete control

## CCc1oc2ccc(C)cc2c1-c1c(O)c(C)nn(C)c1=O [Compound 10, 4-(2-ethyl-5-methyl-3-benzofuranyl)-5-hydroxy-2,6-dimethyl-3(2H)-pyridazinone]
[1]; [11]
  Oat, Wild plant response rating: 5
[1]; [12]
  Plant response rating, Oat, Wild: 5
[1]; [13]
  Plant response rating, Oat, Wild: 25
[1]; [14]
  Oat, Wild plant response rating: 5
[2]; [11]
  Chickweed plant response rating: 90
[2]; [12]
  Plant response rating, Chickweed: 90
[2]; [13]
  Plant response rating, Chickweed: 90
[2]; [14]
  Chickweed plant response rating: 90
Kochia (Kochia scoparia); [11]
  Kochia plant response rating: 60
Kochia (Kochia scoparia); [12]
  Plant response rating, Kochia: 95
Kochia (Kochia scoparia); [13]
  Plant response rating, Kochia: 95
Kochia (Kochia scoparia); [14]
  Kochia plant response rating: 85
[3]; [11]
  Barnyardgrass plant response rating: 35
[3]; [12]
  Plant response rating, Barnyardgrass: 90
[3]; [13]
  Plant response rating, Barnyardgrass: 98
[3]; [15]
  Plant response rating, Barnyardgrass: 0
[3]; [16]
  Plant response rating, Barnyardgrass: 5
[3]; [17]
  Plant response rating, Barnyardgrass: 5
[3]; [18]
  Barnyardgrass plant response rating: 5
[3]; [14]
  Barnyardgrass plant response rating: 90
[4]; [11]
  Velvetleaf plant response rating: 40
[4]; [12]
  Plant response rating, Velvetleaf: 40
[4]; [13]
  Plant response rating, Velvetleaf: 70
[4]; [16]
  Plant response rating, Velvetleaf: 0
[4]; [17]
  Plant response rating, Velvetleaf: 10
[4]; [18]
  Velvetleaf plant response rating: 50
[4]; [14]
  Velvetleaf plant response rating: 45
[5]; [11]
  Ryegrass, Italian plant response rating: 5
[5]; [12]
  Plant response rating, Ryegrass, Italian: 20
[5]; [13]
  Plant response rating, Ryegrass, Italian: 55
[5]; [15]
  Plant response rating, Ryegrass, Italian: 0
[5]; [16]
  Plant response rating, Ryegrass, Italian: 0
[5]; [17]
  Plant response rating, Ryegrass, Italian: 25
[5]; [18]
  Ryegrass, Italian plant response rating: 80
[5]; [14]
  Ryegrass, Italian plant response rating: 5
[6]; [11]
  Galium plant response rating: 5
[6]; [12]
  Plant response rating, Galium: 70
[6]; [13]
  Plant response rating, Galium: 85
[6]; [15]
  Plant response rating, Galium: 0
[6]; [16]
  Plant response rating, Galium: 5
[6]; [17]
  Plant response rating, Galium: 5
[6]; [18]
  Galium plant response rating: 45
[6]; [14]
  Galium plant response rating: 50
Soybean (Glycine max); [11]
  Soybean plant response rating: 0
Soybean (Glycine max); [12]
  Plant response rating, Soybean: 0
Soybean (Glycine max); [13]
  Plant response rating, Soybean: 0
Soybean (Glycine max); [16]
  Plant response rating, Soybean: 0
Soybean (Glycine max); [17]
  Plant response rating, Soybean: 0
Soybean (Glycine max); [18]
  Soybean plant response rating: 0
Soybean (Glycine max); [14]
  Soybean plant response rating: 0
[7]; [11]
  Ragweed plant response rating: 5
[7]; [12]
  Plant response rating, Ragweed: 70
[7]; [13]
  Plant response rating, Ragweed: 98
[7]; [15]
  Plant response rating, Ragweed: 0
[7]; [16]
  Plant response rating, Ragweed: 0
[7]; [17]
  Plant response rating, Ragweed: 0
[7]; [18]
  Ragweed plant response rating: 5
[7]; [14]
  Ragweed plant response rating: 30
[8]; [11]
  Pigweed plant response rating: 55
[8]; [12]
  Plant response rating, Pigweed: 70
[8]; [13]
  Plant response rating, Pigweed: 95
[8]; [15]
  Plant response rating, Pigweed: 0
[8]; [16]
  Plant response rating, Pigweed: 0
[8]; [17]
  Plant response rating, Pigweed: 10
[8]; [18]
  Pigweed plant response rating: 30
[8]; [14]
  Pigweed plant response rating: 60
[9]; 31 g ai/ha
  Plant response rating, Nutsedge, Yellow: 0
[9]; 62 g ai/ha
  Plant response rating, Nutsedge, Yellow: 0
[9]; 125 g ai/ha
  Plant response rating, Nutsedge, Yellow: 0
[9]; 250 g ai/ha, scale 0 to 100, 0 no effect, 100 complete control
  Nutsedge, Yellow plant response rating: 0
[10]; [11]
  Blackgrass plant response rating: 0
[10]; [12]
  Plant response rating, Blackgrass: 10
[10]; [13]
  Plant response rating, Blackgrass: 15
[10]; [15]
  Plant response rating, Blackgrass: 0
[10]; [16]
  Plant response rating, Blackgrass: 0
[10]; [17]
  Plant response rating, Blackgrass: 0
[10]; [18]
  Blackgrass plant response rating: 0
[10]; [14]
  Blackgrass plant response rating: 0
